Reference: US20020010341A1, “Use of thioamide oxazolidinones for the treatment of bone resorption and osteoporosis” (priority 2000, published 2002)

Experiments:
Format in all cases: in vivo
rats [1] = test: Pathogenesis of the bone changes, rats treated for 3 or 7 days; settings: oral
Experimental: (§1) The toxicity of the compound of Example 2 was evaluated in rats treated orally with 30, 60, 120, or 200 mg/kg/day of the compound of Example 2, water, or vehicle (containing 80% propylene glycol, 5% cremophor, and 30-mg/ml povidone) for 4 weeks given in 2 divided doses at 8 hours apart. Reversibility of drug-induced changes was determined 4 and 8 weeks following drug withdrawal. The pathogenesis of the bone changes was evaluated in a study in rats treated with 200 mg/kg/day for 3 or 7 days. TGF-betal protein levels in bone marrow supernatants and serum were determined using ELISA at the end of each of the dosing period. Toxicity was evaluated using clinical, hematological, biochemical, and pathologic end points.

TGF-betal protein = TGF-betal protein levels in bone marrow supernatants and serum by ELISA; settings: rats
Experimental: as §1

rats [2] = test: 4-week oral toxicity study in rats with 4 and 8 week recovery
Experimental: as §1

## CC(=S)NC[C@H]1CN(c2ccc(N3CC[S+]([O-])CC3)c(F)c2)C(=O)O1 [Example 2, (S)-N-[[3-[3-Fluoro-4-(4-thiomorpholinyl)phenyl] -2-oxo-5-oxazolidinyl]methyl]thio-acetamide, thiomorpholine S-oxide]
Rats [1]; 200 mg/kg/day for 3 or 7 days
  onset of hyperostosis (osteoblast proliferation, osteoid deposition): became evident by Day 7
Rats [1]; 200 mg/kg/day, Day 3
  osseous changes on Day 3: no significant osseous changes
TGF-betal protein; Day 3, ELISA
  Serum TGF-beta I: slightly but significantly decreased
  TGF-betal in marrow supernatants: modestly but significantly increased
TGF-betal protein; Day 7 or 28, ELISA
  TGF-betal in marrow supernatants: not on Day 7 or 28
Rats [2]; 4 and 8 weeks after drug withdrawal
  persistence of newly formed bone spicules after drug withdrawal: still present after 4 and 8 weeks of drug withdrawal
Rats [2]; oral
  bone marrow changes: did not show changes other than hypocellularity related to hematopoietic suppression
Rats [2]; oral, 120 and 200 mg/kg/day
  bone mass and density of trabecular (spongy) bone of sternum, femur/tibia, vertebrae, basal cranium: caused an increase in bone mass and density (hyperostosis)
  endosteal cortical bone formation: occurred rarely
  toxic effects: anorexia, weight loss, GI effects, hematopoietic suppression and lymphoid depletion
Rats [2]; oral, Day 28
  marrow cavity histology at Day 28: marrow cavities were traversed by abundant normal looking trabecular bone
Rats [2]; oral, all doses but 200 mg/kg/day (30, 60, 120 mg/kg/day), 4 weeks, 2 divided doses
  clinical tolerability: well tolerated clinically
